Assay results as given in patent EP4311550A1, “CHLOROPHYLLIDE DERIVATIVES FOR USE IN THE PREVENTION OR TREATMENT OF BACTERIAL INFECTION” (Université de Liège, priority 2022, dated 2024).
Where “and” joins values, the source holds several entries; their conditions need not be identical. Equal values may be shown once.

What was measured:
Format in all cases: cell-based
[1] = system: Staphylococcus aureus (ATCC 25923); experiment: disk diffusion assay (growth inhibition halo); conditions: for inhibition diameter (in brackets), in presence of light: Petri dishes incubated in presence of light; for inhibition diameter (in brackets), in the dark: incubation in the dark; for activity of inhibition of S. aureus growth: preparative HPLC fractions redissolved in MeOH/H2O 75%, disk diffusion assay, Figure 3
Procedure: The antimicrobial activity of these extracts was tested against Gram-positive and Gram-negative bacteria, yeasts and fungi by the diffusion disk method. The bacteria tested were Staphylococcus aureus (ATCC 25923), Enterococcus faecium (ATCC 19434), Escherichia coli (ATCC 25922), Pseudomonas aeruginosa (ATCC 27853), Klebsiella pneumoniae (ATCC 13883), methicillin resistant S. aureus (MRSA, ATCC43300) and Bacillus subtilis 168. The yeasts tested were Candida albicans (MUCL 29800), Saccharomyces cerevisiae (MUCL 31497) and the fungus Aspergillus niger (IHEM 3415). Mueller-Hinton II culture medium was used for cultivating S.aureus, E. coli, P. aeruginosa and K. pneumoniae; Brain Heart infusion Broth for E. faecium; Yeast Peptone Dextrose Broth for C. albicans and A. niger and S. cerevisiae. Agar plates with the appropriate medium were inoculated from the glycerol stock culture and Petri dishes were incubated overnight at 37°C for bacteria and at 28°C during 48 hours for the other strains. Colonies or spores (forA. niger) were then resuspended in a sterile solution of NaCl 0.85% to obtain a OD600 between 0.08 and 0.1 at 600 nm (which corresponds to tube of 0.5 on McFarland scale). Sterile cotton buds were soaked with the suspension and the micro-organisms were spread onto the Petri dish. Five sterile disks of chromatography paper (Whatman 3MM) with a diameter of 6,0 mm were placed on the agar plate. Two disks were respectively used for positive (1 mg/ml kanamycin for S. aureus, B. subtilis, E. coli and K. pneumoniae; 25 mg/ml kanamycin for E. faecium; 0,01 mg/ml ciprofloxacin for P. aeruginosa; 20 and 0,01 mg/ml cycloheximide for A. niger and S. cerevisiae, respectively; 0,1 mg/ml nystatin for C. albicans) and negative (MeOH/H2O 75/25%) controls. The remaining disks were used to test the compound of interest in triplicate. On each disk, 10 µl were loaded on the paper disk in two steps (2 x 5 µl) letting the paper dry between the two loadings. The Petri dishes were then incubated as described above. The antimicrobial activity of compounds of interest was visualized by its growth inhibition halo. […] Table 1: Inhibition diameter of the crude methanol 75% extract of spray-dried powder of Scenedemus sp. S4 and freeze-dried powders of D. armatus S0
The injection volume was fixed at 100 µL, the sample temperature in the autosampler was 10°C and the column was thermostatized at 37°C. The effluent was monitored by a photodiode array detector (Waters 2998 PDA detector, detection range: 200-800 nm) and collected using an automatic fraction collector (Waters Fraction Collector III, volume fraction: 500 µl). The collected fractions were then dried by using a vacuum centrifuge (Speedvac vacuum concentrator Savant SPD-111V, Thermo Scientific) and redissolved in 500 µL of MeOH/H2O 75% (75/25 v/v) and assayed for their capacity to inhibit the growth of S. aureus (disk assay as described above). Several fractions were selected for their antibacterial activity and preparative purifications were then carried out to obtain higher quantities of these compounds to allow their identification and subsequently their characterization.
Preparative chromatography was carried out by using an AKTA explorer system (GE Healthcare) and a preparative reverse phase column (Nucleodur C18 Gravity, 5 µm particule size, length x internal diameter: 25 cm x 1 cm) The chromatogram was recorded at 3 different wavelengths: 230 nm, 430 nm and 650 nm. The volume injected was 2 ml and the flow rate fixed at 2 ml/min. The same buffers as those used during analytical separation were selected and the gradient adapted to the column volume. Fraction size was adapted in such a way that one peak corresponded to one collected fraction. These fractions were then dried with a vacuum centrifuge and redissolved in 500 µL of MeOH/H2O 75%. Figure 3 presents the chromatogram obtained at 430 nm. […]

S. aureus (ATCC25923) = experiment: minimum inhibitory concentration by microdilution method; conditions: 37°C, in the dark, 24 hours, Mueller-Hinton broth; 1:40 dilution factor of 58.03 µg/ml stock
Procedure: The minimum inhibitory concentration (MIC) of 13^2-hydroxy-methylchlorophyllide a for S. aureus was determined using the microdilution method. In a 48-well plate, 500 µl of Mueller-Hinton broth were placed in each well. Then, 500 µl of a dilute solution of 13^2-hydroxy-methylchlorophyllide a (stock solution in MeOH/H2O 75% diluted 5x by Mueller-Hinton broth) were added to the first well and serial 2-fold dilutions were made by transferring 500 µL from one well to the next. For the last well, 500 µl were discarded. A culture of S. aureus (ATCC25923) growing in exponential phase was diluted with sterile NaCl 0.85% (w/v) to obtain a bacterial suspension corresponding to 0.5 tube McFarland unit and then dispensed in 500 µl aliquots in the 48 well plate. After covering the 48-plate with its lid, it was incubated at 37°C under agitation and in the dark for 24 hours. The MIC was defined as the last dilution for which no visible bacterial growth was observed. The concentration of the active compound was determined on the basis of a calibration line obtained by injecting increasing volumes of a solution of pure chlorophyllide a standard on a reverse-phase HPLC column.

S. aureus [2] = experiment: growth curve (OD600) of an early exponential culture after addition of compound; conditions: 1x and 4x the MIC, directly after addition, in the dark
Procedure: To further characterize the antibacterial action of 13^2-hydroxy-methylchlorophyllide a, a S. aureus culture in its early exponential phase of growth was submitted to the action of the chlorophyllide derivative. 100 ml of Mueller-Hinton broth were inoculated with an overnight culture of S. aureus to obtain a bacterial density corresponding to an optical density at 600 nm (OD^600) = 0.05. This culture was then incubated at 37°C under orbital shaking (240 rpm) by using an Aquatron (Infors) shaker. Once the cells enter early exponential growth (OD^600= 0.2), the culture was subdivided into three 20 ml cultures. For two cultures, 13^2-hydroxy-methylchlorophyllide a solubilized in MeOH/H2O 75% was added to reach a final concentration equal to 1x and 4x the MIC, respectively. For the third culture (control culture), a corresponding volume of MeOH/H2O without any chlorophyllide compound was added. In Figure 7 the optical density as a function of time is presented. The addition of the compounds occurred after 75 minutes. […] OD^600 remained unchanged during the whole experiment. This observation supports the hypothesis that no bacterial cell lysis takes place and that the antibacterial activity of 13^2-derivative is either bacteriostatic or non-lytic bactericidal.

S. aureus [3] = experiment: viable count (CFU per ml) after addition of compound; conditions: 1 or 4 x MIC, in the dark
Procedure: To distinguish between these two antibacterial activities, the number of viable S. aureus were determined by counting the colonies forming units (CFU) per ml of culture before the addition of the chlorophyllide derivative (t=0 h) and after 2 and 4 hours. […] The negative control is represented in black, while cultures treated with 1x and 4xMIC of purified S fraction are hatched and dotted respectively. The data presented are the average values of three independent experiments.
For culture without addition of chlorophyllide derivative (negative control, only addition of MeOH/H2O 75%) S. aureus maintained its growth and CFU/ml increased. On the contrary, once 13^2-hydroxy-methylchlorophyllide a was added (1 or 4 x MIC value in MeOH/H2O 75%, final concentration), the number of CFU/ml decreased of at least four logarithmic steps (4 log10). This means that the chlorophyllide derivative killed, in the dark, more than 99.99% of the bacterial population. The same result was observed after 2 and 4 hours even if for this latter culture a slight return of bacterial growth was observed.

red blood cell = experiment: sheep erythrocyte lysis assay; conditions: after 120 min, at 4 x MIC, 37°C
Procedure: Activity of 13^2-hydroxy-methylchlorophyllide a on red blood cell was determined using a sheep erythocyte lysis assay. The lytic action was assessed on defibrinated sheep blood (bioTRADING). The erythrocytes were harvested by centrifugation (1500 rpm, 5 min) and washed 10 times with phosphate buffer saline (PBS). The red blood cells were then diluted 25 times with PBS and washed two more times to obtain a colourless supernatant after a centrifugation at 3000 g for 5 minutes. Samples of 1 ml of red blood cells (25 times diluted) are transferred in Eppendorf tubes and the 13^2-hydroxy-methylchlorophyllide a, dissolved in MeOH/H2O 75% (v/v), was added to obtain a final concentration equal to 1x or 4x MIC. The tubes are then incubated at 37°C at 300 rpm by using a thermomixer HC (Starlab) and 100 µl samples were withdrawn at time 0, 5, 10, 15, 30, 60 and 120 min. […]
The erythrocyte lysis was highlighted by the presence of haemoglobin in the supernatant and quantified by measuring the absorbance of the supernatant at 540 nm by means of a microplate reader Tecan infinite200 pro. The percentage lysis was calculated as follows: % lysis = (AChl^540 −APBS^540)/(ASDS 0.1%^540) × 100 [formula] wherein AChl is the absorbance of the tested compound, APBS is the measured absorbance of the PBS solution and ASDS is the absorbance of the SDS solution (positive control), each at the wavelength of 540 nm. […]

With 13^2-hydroxy-methylchlorophyllide b the “inhibition diameter (in brackets), in presence of light” value (“inhibition diameter … of light” for short) ([1]; disk diameter 6,0 mm) was 0.87 cm and the “inhibition diameter (in brackets), in the dark” value ([1]; disk diameter 6,0 mm) was 0.73 cm.
“13^2-hydroxy-methylchlorophyllide a [listing 1 of 2 here]” was tested, and the “activity of inhibition of S. aureus growth” value [1] was “active”.
In the case of “13^2-hydroxy-chlorophyllide b [listing 1 of 2 here]”, the “activity of inhibition of S. aureus growth” value [1] is reported as “active”.
For `C=CC1=C(C)C2=NC1=CC1=NC(=Cc3[n-]c4c(c3C)=C([O-])C(C(=O)OC)C=4C3=NC(=C2)C(C)C3CCC(=O)OC)C(CC)=C1C.[Mg+2]` (centres unmarked) [methyl chlorophyllide a, reference compound], the “inhibition diameter (in brackets), in the dark” value ([1]; disk diameter 6,0 mm) was 0.60 cm.
For “13^2-hydroxy-methylchlorophyllide a [listing 2 of 2 here]”, the “inhibition diameter … of light” value ([1]; disk diameter 6,0 mm) was 1.12 cm, the “inhibition diameter (in brackets), in the dark” value ([1]; disk diameter 6,0 mm) was 0.80 cm and the “activity of inhibition of S. aureus growth” value ([1]; listed as S) was “most active”. The MIC (S. aureus (ATCC25923)) was 1.45 µg/mL, the “S. aureus growth (OD600)” value (S. aureus [2]) was “growth was stopped” and the “decrease of the number of CFU/ml” value (S. aureus [3]; after 2 and 4 hours) was no less than 4 log10. The bacterial population killed (S. aureus [3]) was “more than 99.99%” and the “percentage of red blood cell hemolysis” value (red blood cell) was “lower than 10%”.
“13^2-hydroxy-chlorophyllide a [listing 1 of 2 here]” was tested, and the “inhibition diameter … of light” value ([1]; disk diameter 6,0 mm) was 0.86 cm and the “inhibition diameter (in brackets), in the dark” value ([1]; disk diameter 6,0 mm) was 0.69 cm.
“13^2-hydroxy-chlorophyllide a [listing 2 of 2 here]” was tested, and the “activity of inhibition of S. aureus growth” value [1] was “active”.
“13^2-hydroxy-chlorophyllide b [listing 2 of 2 here]” was tested, and the “inhibition diameter … of light” value ([1]; disk diameter 6,0 mm) was 0.70 cm and the “inhibition diameter (in brackets), in the dark” value ([1]; disk diameter 6,0 mm) was 0.72 cm.
`NC[C@H]1O[C@H](O[C@H]2[C@H](O)[C@@H](O[C@H]3O[C@H](CO)[C@@H](O)[C@H](N)[C@H]3O)[C@H](N)C[C@@H]2N)[C@H](O)[C@@H](O)[C@@H]1O` [Positive control, kanamycin, reference compound] was tested, and the “Inhibition diameter, Positive control” value ([1]; positive control disk on the plate of the named extract (1 mg/ml kanamycin for S. aureus), 10 µl per disk, disk diameter 6,0 mm) was 2.10 cm and 1.62 cm.
With 13^2-hydroxy-methylchlorophyllide b [K] the “activity of inhibition of S. aureus growth” value [1] was “active”.
